In patent US10669240B2, “5-substituted indazole-3-carboxamides and preparation and use thereof” (Samumed, LLC, priority 2014, dated 2020):

Columns and labels:
Assay type in all cases: cell-based
DYRK1A = DYRK1A (Homo sapiens (Human), UniProt Q13627); experiment: DYRK1A activity Tau assay: pSer396 Tau in SH-SY5Y cells by ELISA / western blot; details: overnight (16-18 h) exposure
[1] = system: primary human mesenchymal stem cells (hMSCs); experiment: Chondrogenesis assay in primary human mesenchymal stem cells, nodule count vs TGF-β3 positive control; details: 6 days; for Conc (nM) of Max. activity: 6-point dose-response 2700 nM to 10 nM, dose at which maximum chondrogenesis activity was reached; for Max. Activity as % TGF-β3 activity: relative to TGF-β3 (10 ng/mL) positive control; for Conc (nM) of 100% TGF-β3 activity: concentration required to induce chondrogenesis equivalent to TGF-β3 (10 ng/mL)
From the text: The above synthesized compounds were screened using primary human mesenchymal stem cells (hMSCs) to determine their ability to induce chondrogenesis (process by which cartilage is developed).
Human Mesenchymal Stem Cell Culture:
Primary human mesenchymal stem cells (hMSCs) were purchased from Lonza (Walkersville, Md.) and expanded in Mesenchymal Stem Cell Growth Media (Lonza). Cells between passage 3 and 6 were used for the experiments.
Number of nodules in each well was normalized to the average of 3 DMSO treated wells on the same plate using Excel (Microsoft Inc.). The normalized averages (fold change over DMSO) of 3 replicate wells for each compound concentration were calculated. Due to solubility limitations of some of the compounds, curve fitting was incomplete leading to inaccurate EC50 determinations.
Using TGF-β3 as a positive control, the concentration of test compounds required to induce equivalent levels of chondrogenesis is reported. In addition, the maximum activity of each compound and the respective dose that each compound reached maximum chondrogenesis activity is reported.

[2] = system: Wnt activity (Wnt-responsive SP5 promoter luciferase reporter in SW480 cells); experiment: Wnt activity reporter assay: SW480 cells with SP5 promoter-driven firefly luciferase; details: Homo sapiens, 24 h after compound addition, read-out: Wnt inhibition
From the text: The above synthesized compounds were screened using the assay procedure for Wnt activity described below.
Reporter cell lines were generated by stably transducing cells of cancer cell lines (e.g., colon cancer) with a lentiviral construct that include a Wnt-responsive promoter driving expression of the firefly luciferase gene.
Lentiviral constructs were made in which the SP5 promoter, a promoter having eight TCF/LEF binding sites derived from the SP5 promoter, was linked upstream of the firefly luciferase gene. The lentiviral constructs included a hygromycin resistance gene as a selectable marker. The SP5 promoter construct was used to transduce SW480 cells, a colon cancer cell line having a mutated APC gene that generates a truncated APC protein, leading to de-regulated accumulation of β-catenin.
Cultured SW480 cells bearing a reporter construct were distributed at approximately 10,000 cells per well into 384 well multiwell plates. Compounds were then added to the wells in half-log dilutions using a three micromolar top concentration. A series of control wells for each cell type received only buffer and compound solvent. Twenty-four hours after the addition of compound, reporter activity for luciferases was assayed, for example, by addition of the BrightGlo luminescence reagent (Promega) and the Victor3 plate reader (Perkin Elmer). Readings were normalized to DMSO only treated cells, and normalized activities were then used for the IC50 calculations.

Row | Structure (SMILES) | EC50 (DYRK1A) [nM] | Conc (nM) of Max. activity [1] [nM] | Max. Activity as % TGF-β3 activity [1] [%] | Conc (nM) of 100% TGF-β3 activity [1] [nM] | IC50 [2] [nM]
1 | O=C(Nc1cccc2cccnc12)c1n[nH]c2ccc(-c3cccnc3)cc12 [Compound 43, 5-(Pyridin-3-yl)-N-(quinolin-8-yl)-1H-indazole-3-carboxamide] | 2200 | 100 | 38 |  | 
2 | O=C(Nc1ccnc(C(F)(F)F)c1)c1n[nH]c2ccc(-c3cccnc3)cc12 [Compound 45, 5-(Pyridin-3-yl)-N-(2-(trifluoromethyl)pyridin-4-yl)-1H-indazole-3-carboxamide] | 38 | 900 | 114 | 900 | 
3 | O=C(Nc1ccc(N2CC(F)(F)C2)nc1)c1n[nH]c2ccc(-c3cncc(CN4CCCCC4)c3)cc12 [Compound 71, N-(6-(3,3-Difluoroazetidin-1-yl)pyridin-3-yl)-5-(5-(piperidin-1-ylmethyl)pyridin-3-yl)-1H-indazole-3-carboxamide] | 2 | 900 | 110 | 900 | 
4 | COc1cc(NC(=O)c2n[nH]c3ccc(-c4cncc(CN5CCCCC5)c4)cc23)ccn1 [Compound 78, N-(2-Methoxypyridin-4-yl)-5-(5-(piperidin-1-ylmethyl)pyridin-3-yl)-1H-indazole-3-carboxamide] | 2 | 900 | 79 |  | 
5 | CC(C)N1CCC(NC(=O)c2n[nH]c3ccc(-c4cccnc4)cc23)CC1 [Compound 90, N-(1-Isopropylpiperidin-4-yl)-5-(pyridin-3-yl)-1H-indazole-3-carboxamide] | 15 | 2700 | 169 | 2700 | 
6 | CC(C)CN1CCC(NC(=O)c2n[nH]c3ccc(-c4cccnc4)cc23)CC1 [Compound 91, N-(1-Isobutylpiperidin-4-yl)-5-(pyridin-3-yl)-1H-indazole-3-carboxamide] | 11 | 2700 | 120 | 2700 | 
7 | Cc1ncc(NC(=O)c2n[nH]c3ccc(-c4cccnc4)cc23)cn1 [Compound 97, N-(2-Methylpyrimidin-5-yl)-5-(pyridin-3-yl)-1H-indazole-3-carboxamide] | 556 | 2700 | 98 | 2700 | 
8 | Cc1ncc(NC(=O)c2n[nH]c3ccc(-c4cncc(CN5CCCCC5)c4)cc23)cn1 [Compound 98, N-(2-Methylpyrimidin-5-yl)-5-(5-(piperidin-1-ylmethyl)pyridin-3-yl)-1H-indazole-3-carboxamide] | 1 | 2700 | 161 | 2700 | 
9 | O=C(Nc1cccnc1)c1n[nH]c2cc(F)c(-c3cccnc3)cc12 [Compound 99, 6-Fluoro-N,5-di(pyridin-3-yl)-1H-indazole-3-carboxamide] | 878 | 2700 | 64 |  | 
10 | O=C(Nc1ccnc(N2CCCCC2)c1)c1n[nH]c2ccc(-c3cccnc3)cc12 [Compound 103, N-(2-(Piperidin-1-yl)pyridin-4-yl)-5-(pyridin-3-yl)-1H-indazole-3-carboxamide] | 5 | 2700 | 130 | 2700 | 
11 | CC(C)NC(=O)c1n[nH]c2ccc(-c3cncc(CN4CCCC4)c3)cc12 [Compound 129, N-Isopropyl-5-(5-(pyrrolidin-1-ylmethyl)pyridin-3-yl)-1H-indazole-3-carboxamide] | 42 | 2700 | 108 | 2700 | 
12 | O=C(NC1CCCCC1)c1n[nH]c2ccc(-c3cncc(N4CCCC4)c3)cc12 [Compound 200, N-Cyclohexyl-5-(5-(pyrrolidin-1-yl)pyridin-3-yl)-1H-indazole-3-carboxamide] | 58 | 2700 | 138 | 2700 | 
13 | C#CCN1CCC(NC(=O)c2n[nH]c3ccc(-c4cccc(F)c4F)cc23)CC1 [Compound 367, 5-(2,3-Difluorophenyl)-N-(1-(prop-2-yn-1-yl)piperidin-4-yl)-1H-indazole-3-carboxamide] | 35 | 2700 | 65 |  | 
14 | O=C(Nc1cccnc1)c1n[nH]c2cc(F)c(-c3cncc(CN4CCCCC4)c3)cc12 [Compound 1153, 6-Fluoro-5-(5-(piperidin-1-ylmethyl)pyridin-3-yl)-N-(pyridin-3-yl)-1H-indazole-3-carboxamide] | 1 | 2700 | 146 | 900 | 
15 | NC1CN(c2cncc(-c3ccc4[nH]nc(C(=O)Nc5cccc(F)c5)c4c3)n2)C1 [Compound 1318, 5-(6-(3-Aminoazetidin-1-yl)pyrazin-2-yl)-N-(3-fluorophenyl)-1H-indazole-3-carboxamide] | 6 |  |  |  | 4000
16 | O=C(Nc1ccc(CN2CCCC2)cc1)c1n[nH]c2ccc(-c3cccc(F)c3F)cc12 [Compound 1327, 5-(2,3-Difluorophenyl)-N-(4-(pyrrolidin-1-ylmethyl)phenyl)-1H-indazole-3-carboxamide] | 31 |  |  |  | 1500
17 | O=C(Nc1ccc(CN2CCCC2)cc1)c1n[nH]c2ccc(-c3cncnc3)cc12 [Compound 1328, 5-(Pyrimidin-5-yl)-N-(4-(pyrrolidin-1-ylmethyl)phenyl)-1H-indazole-3-carboxamide] | 4 |  |  |  | 3700
18 | O=C(Nc1ccc(CN2CCCC2)cc1)c1n[nH]c2ccc(-c3cncc(F)c3)cc12 [Compound 1329, 5-(5-Fluoropyridin-3-yl)-N-(4-(pyrrolidin-1-ylmethyl)phenyl)-1H-indazole-3-carboxamide] | 1 |  |  |  | 1700
19 | O=C(Nc1ccc(CN2CCCC2)cc1)c1n[nH]c2ccc(-c3cncc(Cl)c3)cc12 [Compound 1330, 5-(5-Chloropyridin-3-yl)-N-(4-(pyrrolidin-1-ylmethyl)phenyl)-1H-indazole-3-carboxamide] | 3 |  |  |  | 5500
20 | Cc1cc2[nH]nc(C(=O)Nc3ccc(CN4CCCC4)cc3)c2cc1-c1cccnc1 [Compound 1331, 6-Methyl-5-(pyridin-3-yl)-N-(4-(pyrrolidin-1-ylmethyl)phenyl)-1H-indazole-3-carboxamide] | 17 |  |  |  | 1400
21 | O=C(Nc1cc(CN2CCCC2)ccc1Cl)c1n[nH]c2ccc(-c3cccnc3)cc12 [Compound 1333, N-(2-Chloro-5-(pyrrolidin-1-ylmethyl)phenyl)-5-(pyridin-3-yl)-1H-indazole-3-carboxamide] | 9 |  |  |  | 5100
22 | COc1ccc(NC(=O)c2n[nH]c3ccc(-c4cncc(N5CC(N)C5)n4)cc23)cn1 [Compound 1334, 5-(6-(3-Aminoazetidin-1-yl)pyrazin-2-yl)-N-(6-methoxypyridin-3-yl)-1H-indazole-3-carboxamide] | 2 |  |  |  | 1500
23 | CN1CCC(NC(=O)c2n[nH]c3ccc(-c4cnccc4C(F)(F)F)cc23)CC1 [Compound 1340, N-(1-Methylpiperidin-4-yl)-5-(4-(trifluoromethyl)pyridin-3-yl)-1H-indazole-3-carboxamide] | 2500 |  |  |  | 1800
24 | O=C(Nc1ccc(F)cc1)c1n[nH]c2ccc(-c3cncc(F)c3)cc12 [Compound 1341, N-(4-Fluorophenyl)-5-(5-fluoropyridin-3-yl)-1H-indazole-3-carboxamide] | 36 |  |  |  | 4800
25 | CC(C)(C)CN1CCC(NC(=O)c2n[nH]c3cc(F)c(-c4cccnc4)cc23)CC1 [Compound 1342, 6-Fluoro-N-(1-neopentylpiperidin-4-yl)-5-(pyridin-3-yl)-1H-indazole-3-carboxamide] | 13 |  |  |  | 1400
26 | NC1CN(c2cncc(-c3ccc4[nH]nc(C(=O)Nc5cncc(-c6cccc(F)c6)c5)c4c3)n2)C1 [Compound 1344, 5-(6-(3-Aminoazetidin-1-yl)pyrazin-2-yl)-N-(5-(3-fluorophenyl)pyridin-3-yl)-1H-indazole-3-carboxamide] | 15 |  |  |  | 2930
